Laboratory results taken from US10517842B2, “Methods of modulating miRNA levels and compositions for use in the same” (Los Angeles Biomedical Research Institute at Harbor-UCLA …, priority 2017, dated 2019).

Key:
[1] = system: leiomyoma xenografts; assay: Leiomyoma xenograft mouse model (LSMC under the kidney capsule); format: in vivo, CB-17 SCID/beige mice; conditions: Tranilast 50 mg/kg/day i.p. daily for 3 weeks, mice
Source text: We injected primary leiomyoma cells under the kidney capsule of CB-17 SCID/beige mice using a 27 g needle as previously reported (Ishikawa et al., “Progesterone is essential for maintenance and growth of uterine leiomyoma,” Endocrinology (2010) 151: 2433-2442; Ono et al, “Paracrine activation of WNT/beta-catenin pathway in uterine leiomyoma stem cells promotes tumor growth,” Proceedings of the National Academy of Sciences of the United States of America (2013) 110: 17053-17058). After two weeks we excised the xenograft, fixed the tissue, embedded it in paraffin and obtained 5 μm sections for staining. […] This animal model is used to evaluate the efficacy of Tranilast on tumor initiation, progression, histology, and expression of miR-200c and miR-29c and their respective target genes.
Freshly isolated LSMC are injected under the kidney capsule of female ovariectomized CB-17 SCID/beige mice implanted with pellet containing estradiol (0.05 mg/90 d release) and progesterone (25 mg/60 d release) as previously reported (Ishikawa et al., “Progesterone is essential for maintenance and growth of uterine leiomyoma,” Endocrinology (2010) 151: 2433-2442; Ono et al, “Paracrine activation of WNT/beta-catenin pathway in uterine leiomyoma stem cells promotes tumor growth,” Proceedings of the National Academy of Sciences of the United States of America (2013) 110: 17053-17058). For injections of leiomyoma cells, freshly isolated cells from hysterectomy specimens are suspended in rat-tail collagen (type I) solution (BD Biosciences) at 1×10^6 cells/10 μl and grafted onto kidney capsule.
To determine the effects of Tranilast on tumor initiation, immediately after subcapsular injection of cells mice (10 per group) will be treated i.p. daily for 3 weeks with vehicle (1% DMSO) or Tranilast (50 mg/kg/day) (Kim et al., “Effects of tranilast and pentoxifylline in a mouse model of chronic asthma using house dust mite antigen,” The Journal of asthma: official journal of the Association for the Care of Asthma (2009) 46: 884-894) at which point the animals are sacrificed and tumors excised, weighed and measured and subjected for further analyses detailed below.
To determine tumor progression in an additional four groups (10/group), LMSC cells are injected under the kidney capsule and tumors are allowed to develop for five weeks. Mice are then injected i.p. daily for 3 more weeks with vehicle or Tranilast (50 mg/kg/day) (Kim et al., “Effects of tranilast and pentoxifylline in a mouse model of chronic asthma using house dust mite antigen,” The Journal of asthma: official journal of the Association for the Care of Asthma (2009) 46: 884-894) at which time the animals are sacrificed and tumors excised, weighed, measured and subjected for further analysis.
For tumor analysis, portions of tumors are allocated for RNA and protein extraction, and the remainder fixed in 4% neutral-buffered formalin and embedded in paraffin (FFPE) for histologic analysis. To assess the rate of collagen deposition, 5 μm cut paraffin sections are subjected to histologic analysis and stained with Masson's Trichrome and Sirius Red (Sigma-Aldrich), and images are analyzed by Image-Pro Plus software (Media Cybernetics) as described in detail in our prior publications (Khorram et al., “Nutrient restriction in utero induces remodeling of the vascular extracellular matrix in rat offspring,” Reproductive sciences (2007) 14: 73-80; Khorram et al., “In utero undernutrition in rats induces increased vascular smooth muscle content in the offspring, American journal of obstetrics and gynecology (2007) 196: 486.e481-488). For Immunohistochemistry, the sections are de-paraffinized in xylene, and heated in 0.01 M citrate buffer for 15 min in a microwave oven. Slides are then incubated in methanol containing 0.3% hydrogen peroxide. Slides are incubated with primary antibody or control serum, washed, and followed by application of secondary antibody. The chromogen used is diaminobenzidine (DAKO). […]

[2] = system: NF-Kb (p65) binding elements in the miR-200c promoter; assay: CHIP assay, p65 binding in the miR-200c promoter in LSMC; format: cell-based, human; conditions: Tranilast 200 μM, 48 hrs, percent input method

- p65 binding ability in miR-200c promoter [2]: decreased
Compound: COc1ccc(C=CC(=O)Nc2ccccc2C(=O)O)cc1OC [Tranilast, 2-[[3-(3,4-dimethoxyphenyl)-1-oxo-2-propenyl]amino]benzoic acid]
- NF-kB signaling in xenograft [1]: inhibition
- cell proliferation (Ki-67 and PCNA labeling index) [1]: reduce
- leiomyoma size [1]: shrinkage
- methytransferases (DNMT1) in xenograft [1]: inhibition
- miR-29c expression in xenograft [1]: up-regulate
- miR-200c expression in xenograft [1]: up-regulate
- rate of collagen deposition (Sirius Red staining) [1]: reduce
